Data reported in patent US20050112573A1, “Method of detecting toxic substance” (priority 2001, published 2005).

System: yeast genes (level of expressed mRNA)
Test: DNA chip analysis of expressed mRNA of yeast genes after 2 h culture with a toxic chemical substance
Type: cell-based, Saccharomyces cerevisiae S288C
Description: Yeast (Saccharomyces cerevtisiae S288C (α SUC2mal mel gap2 CUP1)) were cultured at 25° C. on YPD medium (yeast extract 1%, polypepton 2%, glucose 2%). One of toxic chemical substances was added to the cell at logarithmic growth phase, and the cell was further cultured for two hours. Cell was cultured without any chemical substance in the same condition, and was used as control. Concentrations of the chemical substances were defined to inhibit the growth of the yeast but not lead to death.
After the completion of cultivation, the culture was centrifuged to collect the cells. To the cells, sodium acetate buffer (50 mM sodium acetate, 10 mM EDTA, 1% SDS) was added, and the mixture was shaken at 65° C. for five minutes, followed by returning to room temperature, and obtaining the supernatant, which procedure was repeated two times. To the supernatant, ½ amount of a solution of phenol/chloroform was added, and the mixture was centrifuged to give a supernatant, which was added with an equal amount of chloroform, and the mixture was centrifuged to give a supernatant. To the supernatant, an equal amount of isopropanol containing 0.3 M sodium acetate was added, and the mixture was allowed to stand at room temperature for 30 minutes, after which the mixture was centrifuged to give a sediment of the whole RNAs. Seventy % ethanol was added to the sediment, and the mixture was again centrifuged to give a sediment, which was then dried and dissolved in water. mRNA was isolated from the whole RNAs as followings. In view of the fact that a poly A chain is attached to the 3′ terminus of mRNA, a polynucleotide having a poly T structure which was immobilized on the surface of latex beads was used to trap the mRNA, and then the mRNA was washed and eluted with spine column (Oligotex-dT30<Super>mRNA Purification Kit, Takara). Reverse transcription of the mRNA was conducted with a reverse transcriptase (Super Script II Reverse Transcriptase; catalogue No. 18064-014, GibcoBRL) using fluorescence-labeled nucleotides to give cDNAs that were introduced with Cy3-dUTP or Cy5-dUTP during the reverse transcription.
The labeled cDNAs were dissolved in TE buffer (10 mM Tris-HCl/1 mM EDTA, pH8.0), and the solution was dropped on the DNA chip containing the whole genes of yeast (DNA Chip Research Inc. Japan) so that the cDNAs were hybridized on the DNA chip at 65° C. for over 12 hours. The fluoresces intensity of the DNA chip was read with a scanner, and the ratio relative to the fluorescence intensity resulting from the absence of chemical substance was estimated as the following, which is shown in Tables 1 to 9: [formula]
In the Tables, “Intensity” indicated in the rightmost column is a value of the level of expressed mRNA of each gene in control cells as divided by the average level of the expressions of the whole genes.

With `COc1cc(CNC(=O)CCCCC=CC(C)C)ccc1O` [(12), 8-methyl-N-vanillyl-6-nonenamide] the “level of expressed mRNA in the presence of chemical substance/in its absence” value (“level … of chemical substance/in its absence” below) (gene YAL012W) was 1.1, the “The level of expressed mRNA in the presence of chemical substance/absence: YAL014C” value (gene YAL014C) was 1.2 and the “The level of expressed mRNA in the presence of chemical substance/absence: YAL017W” value (gene YAL017W) was 1.0. The “The level of expressed mRNA in the presence of chemical substance/absence: YAL018C” value (gene YAL018C) was 0.9, the “level … of chemical substance/in its absence” value (gene YAL038W) was 1.2 and the “level … of chemical substance/in its absence” value (gene YAL044C) was 0.6. The “The level of expressed mRNA in the presence of chemical substance/absence: YAL049C” value (gene YAL049C) was 1.1, the “level … of chemical substance/in its absence” value (gene YAL054C) was 1.0 and the “The level of expressed mRNA in the presence of chemical substance/absence: YAR047C” value (gene YAR047C) was 0.9. The “The level of expressed mRNA in the presence of chemical substance/absence: YAR064W” value (gene YAR064W) was 0.8, the “level … of chemical substance/in its absence” value (gene YAR071W) was 2.0 and the “level … of chemical substance/in its absence” value (gene YBL001C) was 0.7. The “The level of expressed mRNA in the presence of chemical substance/absence: YBL044W” value (gene YBL044W) was 0.9, the “The level of expressed mRNA in the presence of chemical substance/absence: YBL100C” value (gene YBL100C) was 0.7 and the “The level of expressed mRNA in the presence of chemical substance/absence: YBR012C” value (gene YBR012C) was 1.0. The “The level of expressed mRNA in the presence of chemical substance/absence: YBR013C” value (gene YBR013C) was 1.2, the “level … of chemical substance/in its absence” value (gene YBR014C) was 0.6 and the “level … of chemical substance/in its absence” value (gene YBR023C) was 0.8. For the same molecule, the “level … of chemical substance/in its absence” value (gene YBR029C) was 1.3, the “level … of chemical substance/in its absence” value (gene YBR035C) was 1.2 and the “level … of chemical substance/in its absence” value (gene YBR050C) was 1.0. The “The level of expressed mRNA in the presence of chemical substance/absence: YBR051W” value (gene YBR051W) was 0.7, the “The level of expressed mRNA in the presence of chemical substance/absence: YBR063C” value (gene YBR063C) was 1.1 and the “The level of expressed mRNA in the presence of chemical substance/absence: YBR066C” value (gene YBR066C) was 0.7. The “level … of chemical substance/in its absence” value (gene YBR068C) was 0.8, the “level … of chemical substance/in its absence” value (gene YBR111C) was 1.2 and the “The level of expressed mRNA in the presence of chemical substance/absence: YBR124W” value (gene YBR124W) was 0.9. The “The level of expressed mRNA in the presence of chemical substance/absence: YBR129C” value (gene YBR129C) was 1.0, the “level … of chemical substance/in its absence” value (gene YBR145W) was 1.0 and the “The level of expressed mRNA in the presence of chemical substance/absence: YBR162C” value (gene YBR162C) was 0.7. The “level … of chemical substance/in its absence” value (gene YBR183W) was 1.2, the “level … of chemical substance/in its absence” value (gene YBR222C) was 0.9 and the “The level of expressed mRNA in the presence of chemical substance/absence: YBR255W” value (gene YBR255W) was 0.7. The “The level of expressed mRNA in the presence of chemical substance/absence: YBR281C” value (gene YBR281C) was 0.5, the “The level of expressed mRNA in the presence of chemical substance/absence: YBR287W” value (gene YBR287W) was 1.2 and the “level … of chemical substance/in its absence” value (gene YBR299W) was 1.2. The “level … of chemical substance/in its absence” value (gene YCL009C) was 1.7, the “The level of expressed mRNA in the presence of chemical substance/absence: YCL044C” value (gene YCL044C) was 0.9 and the “The level of expressed mRNA in the presence of chemical substance/absence: YCL056C” value (gene YCL056C) was 1.0. The “level … of chemical substance/in its absence” value (gene YCL064C) was 0.7, the “The level of expressed mRNA in the presence of chemical substance/absence: YCR007C” value (gene YCR007C) was 0.8 and the “level … of chemical substance/in its absence” value (gene YCR037C) was 0.7. For the same molecule, the “level … of chemical substance/in its absence” value (gene YCR048W) was 0.9, the “level … of chemical substance/in its absence” value (gene YCR098C) was 1.3 and the “level … of chemical substance/in its absence” value (gene YDL022W) was 1.2. For the same molecule, the “The level of expressed mRNA in the presence of chemical substance/absence: YDL046W” value (gene YDL046W) was 1.0, the “The level of expressed mRNA in the presence of chemical substance/absence: YDL089W” value (gene YDL089W) was 0.9 and the “The level of expressed mRNA in the presence of chemical substance/absence: YDL173W” value (gene YDL173W) was 1.1. The “The level of expressed mRNA in the presence of chemical substance/absence: YDL193W” value (gene YDL193W) was 1.1, the “The level of expressed mRNA in the presence of chemical substance/absence: YDL233W” value (gene YDL233W) was 0.9 and the “level … of chemical substance/in its absence” value (gene YDR009W) was 1.0. For the same molecule, the “level … of chemical substance/in its absence” value (gene YDR019C) was 0.7, the “The level of expressed mRNA in the presence of chemical substance/absence: YDR071C” value (gene YDR071C) was 0.9 and the “The level of expressed mRNA in the presence of chemical substance/absence: YDR078C” value (gene YDR078C) was 0.7. The “The level of expressed mRNA in the presence of chemical substance/absence: YDR090C” value (gene YDR090C) was 0.6, the “The level of expressed mRNA in the presence of chemical substance/absence: YDR109C” value (gene YDR109C) was 1.0 and the “The level of expressed mRNA in the presence of chemical substance/absence: YDR128W” value (gene YDR128W) was 0.6.
